The results in this text go back to patent publication US11331368B2, “Angiotensin receptor agonists and uses thereof” (Monash University, priority 2017, dated 2022).

“Also recorded” adds a separate entry of the source. Square brackets hold non-standard residues; d marks the D form. Ends that are not written are not given here. βVal = β-valine (β-amino acid form of Val); βIle = beta-form isoleucine

For assay [1], the system named is human cardiac fibroblasts. Description: AT1R and AT2R mRNA expression in human cardiac fibroblasts (qPCR). The format is cell-based. The note with it: 5 ng/ml for 72 hours. As for the experimental part: FIG. 2: TGF-β1 differentially affects the mRNA expression of AT1R and AT2R in human cardiac fibroblasts. Quantitative qPCR data showing that both AT1R and AT2R are expressed in human cardiac fibroblasts. TGF-β1 (5 ng/ml for 72 hours) increased AT2R mRNA expression but not AT1R mRNA expression. Quantitative values were obtained from the threshold cycle (Ct) number. Target gene expression level was normalized against beta-actin mRNA expression for each sample and data was expressed relative to the control. Data expressed as mean±sem relative to untreated HCFs; *P<0.05 versus untreated control (t-test).
Background: Real-time PCR tracks product formation cycle by cycle.

The test system of assay [2] is male FVB/N mice on high salt diet, kidney. The experiment in a line: High salt (5%) diet intervention model, kidney. The assay is classed as in vivo, mouse. The note with it: 75 pmol/kg/min s.c., weeks 5-8. As for the experimental part: (§1) C) In the intervention (or reversal) model, male FVB/N mice were treated with selective AT2Rs agonists after the establishment of cardiovascular disease using a high salt diet, in order to reverse cardiovascular pathologies. In some experiments, the ACE inhibitor captopril (dose) or the ARB candesartan cilexetil (dose) were given for 4 weeks in drinking water. Organs examined included heart, kidney and liver and these were compared to either untreated mice or high salt-fed mice that were treated with saline.
(§2) Mice were placed on either a normal rodent diet (0.35% NaCl) which acted as control or a high salt diet (5% sodium in food chow) for 8 weeks. After 4 weeks, mice were also treated subcutaneously (via osmotic mini-pump) with either saline or an AT2R agonist (75 pmol/kg/min subcutaneously) for 4 weeks. Mice continued to be fed a high salt diet whilst receiving these treatments.
To measure collagen deposition, frozen sections of heart, kidney or aorta (all 5 μm thickness) were air dried for 10 minutes and were brought through 3 times xylene (2 minutes each), and 3 times absolute alcohol washes before being rinsed in tap H2O for 30 seconds. Staining with an optimal concentration of picrosirius red (in this instance 0.05% picrosirius red diluted in saturated picric acid) was performed and left for an hour. Sections were then rinsed in water and differentiated in 0.01M HCl for 2 minutes, followed by dehydration via 3 times absolute alcohol washes. Then, slides were brought through 3 times xylene washes before being cover slipped according to standard histological techniques using DPX as the mounting medium. Images were taken under ×20 magnification, using bright field (Olympus, BX51) and circularized polarized light microscopy (DM IRB, Leica) while percentage of positive interstitial collagen staining per total field of view was quantified using ImageJ 1.46 software (Java, NIH), and averaged out from a total of eight views as the final percentage collagen content in a particular animal.
Kidney sections used either picrosirius red staining as described above or using Mason's Trichrome staining as described below.
Formalin fixed, paraffin embedded kidneys were sectioned at thickness of 4 μm and were stained with Masson's trichrome according to standard procedures for analysis of kidney fibrosis. […] Sections were re-fixed in Bouin's solution for 1 hour at 56° C. to improve staining quality then rinsed in running tap water for 5-10 minutes to remove yellow colour. Following this, sections were stained in Weigert's iron hematoxylin working solution for 10 minutes. Rinsed in running warm tap water for 10 minutes. Washed in distilled water. Stained in Biebrich scarlet-acid fuchsin solution for 10-15 minutes. Washed in distilled water. Differentiated in phosphomolybdic-phosphotungstic acid solution for 10-15 minutes or until collagen was no longer red. Sections were transferred directly (without rinse) to aniline blue solution and stained for 5-10 minutes. Rinsed briefly in distilled water and differentiated in 1% acetic acid solution for 2-5 minutes. Washed in distilled water. […] Mounted with DPX mounting medium.
Quantification of kidney fibrosis was performed using images captured with the Aperio scanner (Monash Histology Platform, Monash University), with ×5 magnification. Each kidney section had 5 different fields of view photographed at this magnification. Percentage of tubulointerstitial collagen was analysed and quantified using ImageJ 1.48 software (Java, NIH), and the percentage from 5 random fields of view were averaged for final percentage of collagen for that particular animal. All analysis of collagen expression was conducted in a blinded fashion.

Assay [3] shares this test system. The experiment in a line: High salt (5%) diet intervention model, kidney. The format is in vivo, mouse. The note with it: 75 pmol/kg/min s.c., weeks 5-8. This is another data set of the same source.
The test system of assay [4] is male FVB/N mice on high salt diet, heart. The experiment in a line: High salt (5%) diet intervention model, heart. The assay is classed as in vivo, mouse. A digest of the protocol: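 Male FVB/N mice fed 5% salt diet for 8 weeks (controls 0.35% NaCl); from week 4, AT2R agonist at 75 pmol/kg/min or saline given subcutaneously by osmotic minipump for 4 weeks on continued high salt. Heart collagen by picrosirius red, % interstitial staining averaged over eight fields; immunofluorescence for fibrosis/inflammation markers.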

Assay [5] in a line: Systolic blood pressure by tail-cuff in high salt-fed mice. The format is in vivo, mouse. The settings on record: data not shown. As for the experimental part: The incision area was sutured with 6/0 DY silk ([…] Ltd) and antibiotic powder applied ([…], Pfizer) followed by intramuscular injection of the analgesic Cartrophen (0.1 ml of a 1.5 mg/ml stock solution; Biopharm Australia). Systolic blood pressure (SBP) was measured using non-invasive tail-cuff plethysmography apparatus (MC4000 Blood Pressure Analysis System, Hatteras Instrument Inc) before drug treatment (week 0), and then fortnightly. At the end of the 8 week treatment period mice were weighed before being killed by overdose of isoflurane inhalation and cervical dislocation. […] To this end, modified Ang peptides of interest were dissolved in saline and delivered subcutaneously via an implanted osmotic minipump and systolic blood pressure (SBP) was measured fortnightly.

Assay [6] concerns male FVB/N mice on high salt diet, liver. Description: High salt (5%) diet intervention model, liver. The format is in vivo, mouse. The settings on record: weeks 5-8, peptides 75 pmol/kg/min s.c., Cand 2 mg/kg/day, captopril 3 mg/kg/day. As for the experimental part:
as §1, §2
Liver sections used either picrosirius red staining or Masson's trichome staining as described above. Higher concentrations of picrosirius red were often used under polarized light microscopy. The liver was removed and sectioned with half of the liver placed in 10% formalin and the rest frozen in liquid nitrogen before being stored in ˜80° C. freezer for future use. Formalin fixed, paraffin embedded livers were sectioned at thickness of 4 μm and were stained with Masson's trichrome according to standard procedures for analysis of liver fibrosis. […] Sections were re-fixed in Bouin's solution for 1 hour at 56° C. to improve staining quality then rinsed in running tap water for 5-10 minutes to remove yellow colour. Following this, sections were stained in Weigert's iron hematoxylin working solution for 10 minutes. Rinsed in running warm tap water for 10 minutes. Washed in distilled water. Stained in Biebrich scarlet-acid fuchsin solution for 10-15 minutes.
Washed in distilled water. Differentiated in phosphomolybdic-phosphotungstic acid solution for 10-15 minutes or until collagen was no longer red. Sections were transferred directly (without rinse) to aniline blue solution and stained for 5-10 minutes. Rinsed briefly in distilled water and differentiated in 1% acetic acid solution for 2-5 minutes. Washed in distilled water. […] Mounted with DPX mounting medium. Quantification of liver fibrosis was performed using images captured with the Aperio scanner (Monash Histology Platform, Monash University), with ×5 magnification. Each liver section had 5 different fields of view photographed at this magnification. Percentage of interstitial and perivascular collagen was analysed and quantified using ImageJ 1.48 software (Java, NIH), and the percentage from 5 random fields of view were averaged for final percentage of collagen for that particular animal. All analysis of collagen expression was conducted in a blinded fashion.

Assay [7] concerns the target T1, human Angiotensin II Receptor Type 2 (AT2R) (human, UniProt P50052 1-363).
T1 construct: whole, on cells; also endogenous on human cardiac fibroblasts (functional entries); also called AT2 receptor
T1 sequence (looked up): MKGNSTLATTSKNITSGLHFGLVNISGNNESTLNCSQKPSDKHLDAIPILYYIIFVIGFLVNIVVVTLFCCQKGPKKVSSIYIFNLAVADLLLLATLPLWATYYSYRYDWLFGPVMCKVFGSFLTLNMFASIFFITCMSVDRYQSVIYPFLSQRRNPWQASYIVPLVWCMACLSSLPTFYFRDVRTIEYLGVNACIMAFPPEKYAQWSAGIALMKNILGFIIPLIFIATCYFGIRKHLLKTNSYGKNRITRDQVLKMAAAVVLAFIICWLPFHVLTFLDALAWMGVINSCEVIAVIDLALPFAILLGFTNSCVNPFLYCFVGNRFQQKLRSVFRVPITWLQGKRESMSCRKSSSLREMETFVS
Description: competition radioligand binding on HEK-293 cells with AT2R; competitor [125I]-Sar1Ile8Ang II.
Description: (§3) For each experiment, each ligand concentration was tested in duplicate or triplicate, and each experiment was repeated at least 3 separate times.

Assay [8] deals with T1, human Angiotensin II Receptor Type 2 …. The experiment in a line: AT2R over AT1R, from IC50s of competition radioligand binding; reference AT1R.
Description: as §3
The target in assay [9] is T2, human Angiotensin II Receptor Type 1 (AT1R) (human, UniProt P30556 1-359).
T2 construct: whole, on cells; also endogenous on human cardiac fibroblasts (functional entry); also called AT1 receptor
T2 sequence (looked up): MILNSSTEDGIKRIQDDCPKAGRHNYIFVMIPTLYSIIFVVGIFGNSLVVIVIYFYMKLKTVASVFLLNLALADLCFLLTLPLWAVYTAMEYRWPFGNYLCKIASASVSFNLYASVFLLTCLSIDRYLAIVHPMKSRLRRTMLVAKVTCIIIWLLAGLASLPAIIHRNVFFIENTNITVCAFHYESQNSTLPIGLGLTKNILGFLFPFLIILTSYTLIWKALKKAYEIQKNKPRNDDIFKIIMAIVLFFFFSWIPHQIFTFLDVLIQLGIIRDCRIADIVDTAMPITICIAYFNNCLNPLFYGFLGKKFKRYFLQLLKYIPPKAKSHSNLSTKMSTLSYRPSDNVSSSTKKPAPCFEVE
The experiment in a line: competition radioligand binding on HEK-293 cells with AT1R; competitor [125I]-Sar1Ile8Ang II.
Description: as §3

With “TGF-β1: pro-fibrotic agent (fibrogenic cytokine) used to stimulate human cardiac fibroblasts”, in assay [1], the “AT1R mRNA expression” value was “not” and the “AT2R mRNA expression” value was “increased”.

Take `CC[C@H](C)[C@@H](CC(=O)N[C@@H](Cc1c[nH]cn1)C(=O)N1CCC[C@H]1C(=O)N[C@@H](Cc1ccccc1)C(=O)O)NC(=O)[C@H](Cc1ccc(O)cc1)NC(=O)[C@@H](NC(=O)[C@H](CCCNC(=N)N)NC(=O)[C@@H](N)CC(=O)O)C(C)C` [βIle-Ang II, Asp-Arg-Val-Tyr-β-Ile-His-Pro-Phe]: the “kidney tubulointerstitial fibrosis (Masson's trichrome)” value in assay [2] is given as “reversed high salt-induced tubulointerstitial fibrosis”. The “macrophage infiltration in kidney (F4/80)” value in [3] is reported as “reversed”. For the same molecule, the “TGF-β1 protein in the heart (Western blot)” value in assay [4] (75 pmol/kg/min s.c., weeks 5-8) is given as “significantly lower TGF-β1 protein”. For the same molecule, the “myofibroblast differentiation in heart (α-SMA)” value in assay [4] (75 pmol/kg/min s.c., weeks 5-8) is given as “reduced myofibroblast differentiation”. Further, the “MMP-13 protein expression in heart (Western blot)” value in [4] (weeks 5-8, peptide 75 pmol/kg/min s.c., Cand 2 mg/kg/day, captopril 3 mg/kg/day) was “normalised MMP-13 to levels observed in the normal salt group”. In addition, in assay [4] (weeks 5-8, peptide 75 pmol/kg/min s.c., Cand 2 mg/kg/day, captopril 3 mg/kg/day, listed as β-Ile^5-Ang II), the “macrophage infiltration/expression in heart (F4/80)” value is on record as “reversed by all agents; also recorded: reduced macrophage infiltration/expression”. Moreover, the “expression of P-IκBα (marker for NFκB activation) in heart” value in assay [4] (weeks 5-8, peptides 75 pmol/kg/min s.c., Cand 2 mg/kg/day, captopril 3 mg/kg/day, listed as β-Ile^5-Ang II) was “significantly reduced expression of P-IκBα”. In addition, in assay [4] (weeks 5-8 of high salt diet, peptides 75 pmol/kg/min s.c. mini-pump, Cand 2 mg/kg/day, captopril 3 mg/kg/day in drinking water, listed as β-Ile^5-Ang II), the “cardiac fibrosis (picrosirius red)” value is “reversed high salt-induced cardiac fibrosis”. Also, the “systolic blood pressure (SBP)” value in assay [5] is recorded as “did not alter SBP”. Further, in assay [6], the “liver steatosis (Oil Red O)” value is “significantly reduced excess lipid accumulation”. In addition, the “liver fibrosis (picrosirius red, polarized light)” value in [6] (listed as 8-Ile^5-Ang II) is “reversed collagen accumulation to levels seen in normal salt group”; in [6] (listed as β-Ile^5-Ang II), “similarly inhibited the pro-fibrotic effects of high salt in the liver”.

B1: βIle-8-Ang III (peptide)
peptide: RVYIHP[βIle]-OH
notes: synthetic peptide; also called Arg-Val-Tyr-Ile-His-Pro-β-Ile
The IC50 is the concentration needed to halve the response being measured. High values mean a need for much substance, low ones inhibition by little substance. As to B1, the IC50 in [7] came out at 9.6 nM. Besides, the “Fold AT2R selectivity” value in assay [8] came out at 1040 fold.

B2: βVal-Trp-8-Ang III (peptide)
peptide: R[βVal]YIHPW
notes: synthetic peptide; also called Arg-β-Val-Tyr-Ile-His-Pro-Trp
B2: the concentration for half-maximal inhibition (IC50) in [9] worked out at 1210 nM.
